Tested on: EGFP-HttQ74 aggregates in U2OS cells
Assay: Analysis of polyQ (EGFP-HttQ74) aggregation in U2OS cells
Assay type: cell-based
Conditions: U2OS EGFP-HttQ74, 5 μM, 24 h, with BOC-D-FMK
Description: Considering these earlier findings, we assessed the impact of the most promising compound, RUN-89, on protein aggregate formation in cells. U2OS cells were transfected with the EGFP-HttQ74 plasmid, a model for polyglutamine (polyQ) aggregation, and then treated with the caspase inhibitor BOC-D-FMK in combination with either 5 μM RUN compounds or a vehicle control for 24 hours prior to the microscopy analysis (Fig. 4). […] A decrease in aggregate size leads to an increase in their number, as the formation of large aggregates is prevented. Instead, multiple smaller aggregates are formed, which, according to our assumption, could be more easily degraded (Fig. 4B). […] Representative fluorescence microscopy images of U2OS cells expressing EGFP-HttQ74 treated with RUN-89 are shown in Fig. 4D, highlighting the difference between RUN-89-treated and vehicle-treated cells.
U2OS cells expressing EGFP-HttQ74 were treated for 24 hours with either the caspase inhibitor BOC-D-FMK, 5 μM RUN compounds, or DMSO (negative control). In total, cells from three independent experiments were analyzed (n = 3) and from every well 10 areas were screened. […] The volume value was measured in voxels. […] (D) Fluorescence microscopy images represent U2OS cells overexpressing EGFP-HttQ74 after treatment with RUN-89 and DMSO for 24 h. […]
instructions. […] Data were expressed as a fold change relative to the corresponding DMSO control. […]

COc1ccc(/C=C2\CC(NC(=O)C3CCCC3)C/C(=C\c3ccc(OC)c(OC)c3)C2=O)cc1OC (stereo not shown) [RUN-89]
Number of aggregates per cell: 4.545
